According to US20230271950A1, “ANTIBACTERIAL PICOLINAMIDE COMPOUNDS” (University of Notre Dame Du Lac, priority 2020, published 2023):
In brackets after ≈: the same amount, converted by molar mass. Read-outs that look alike come from different tables or passages of the source. Blank lines part the entries; values can stand above or below the compound they belong to.

Tests used:
Fusobacterium nucleatum = assay: MIC against gut bacterium Fusobacterium nucleatum; format: cell-based; conditions: Fusobacterium nucleatum, Fusobacterium nucleatum strain HM-992; Table 7; read-out: MIC
Eubacterium sp. = assay: MIC against gut bacterium Eubacterium sp.; format: cell-based; conditions: Eubacterium, Eubacterium sp. strain HM-178; Table 7; read-out: MIC
Veillonella sp. HM-49 = assay: MIC against gut bacterium Veillonella sp.; format: cell-based; conditions: SP.HM49; Veillonella sp. strain HM-49; Table 7; read-out: MIC
Bifidobacterium longum = assay: MIC against gut bacterium Bifidobacterium longum; format: cell-based; conditions: Bifidobacterium longum, Bifidobacterium longum strain HM-846; Table 7; read-out: MIC
C. difficile = assay: MIC by broth microdilution against C. difficile strains; format: cell-based, Clostridioides difficile; conditions: for MIC: Clostridioides difficile
Bacteroides fragilis = assay: MIC against gut bacterium Bacteroides fragilis; format: cell-based; conditions: Bacteroides fragilis, Bacteroides fragilis strain HM-709; Table 7; read-out: MIC
Lactobacillus gasseri = assay: MIC against gut bacterium Lactobacillus gasseri; format: cell-based; conditions: Lactobacillus gasseri strain HM-644; Table 7; read-out: MIC
HeLa cells = assay: XTT cytotoxicity assay with HeLa cells; format: cell-based; conditions: Homo sapiens, Table 6
Description: XTT assay. Cytotoxicity assays were performed in triplicate against HeLa cells (ATCC CCL-2). The IC50 values were calculated by nonlinear regression with GraphPad Prism 5 (San Diego, Calif.).
XTT assay. XTT assays were performed with HeLa cells (ATCC CCL-2) in triplicate, as previously described (Lancet 2008, 371, 1486). IC50 values were determined by nonlinear regression using GraphPad Prism 5 (San Diego, Calif.).

MRSA (NRS70, NRS119) = assay: MIC against MRSA strains; format: cell-based, Staphylococcus aureus; conditions: Staphylococcus aureus
E. faecium NCTC7171 = assay: MIC against E. faecium; format: cell-based, Enterococcus faecium; conditions: Enterococcus faecium, NCTC7171; E. faecium NCTC 7171; Table 10, unit inferred; read-out: Activity (MIC) against E. faecium
Lactobacillus reuteri = assay: MIC against gut bacterium Lactobacillus reuteri; format: cell-based; conditions: Limosilactobacillus reuteri; Lactobacillus reuteri strain HM-102; Table 7; read-out: MIC
S. aureus ATCC29213 = assay: MIC against MSSA; format: cell-based, Staphylococcus aureus; conditions: Staphylococcus aureus; MSSA ATCC 29213; Table 10, unit inferred; read-out: Activity (MIC) against S. aureus
Corynebacterium spp. = assay: MIC against gut bacterium Corynebacterium spp.; format: cell-based; conditions: Corynebacterium, Corynebacterium spp. strain HM-784; Table 7
[1] = ATCC43255, ATCC 43255, ribotype 087, Table 3 (SAR^2 and SAR^3), read-out: MIC C. difficile
[2] = ATCC43255, C. difficile ATCC43255, Table 7, read-out: MIC
[3] = ATCC43255, C. difficile ATCC 43255, read-out: MIC against C. difficile
[4] = ATCC43598, C. difficile ATCC43598, Table 7, read-out: MIC
[5] = BAA1801, C. difficile BAA-1801, Table 7, read-out: MIC
[6] = BAA1803, C. difficile BAA-1803, Table 7, read-out: MIC
[7] = BAA1804, C. difficile BAA-1804, Table 7, read-out: MIC
[8] = BAA1812, C. difficile BAA-1812, Table 7, read-out: MIC
[9] = BAA1814, C. difficile BAA-1814, Table 7, read-out: MIC
[10] = BAA1870, C. difficile BAA-1870, Table 7, read-out: MIC
[11] = C. difficile 23691 (VR, vancomycin-resistant), Table 7, read-out: MIC
[12] = C. difficile 23828 (FR, fidaxomicin-resistant), Table 7, read-out: MIC
[13] = C. difficile 24531 (VR, vancomycin-resistant), Table 7, read-out: MIC
[14] = C. difficile 24923 (VR, vancomycin-resistant), Table 7, read-out: MIC
[15] = C. difficile 26675 (MR, metronidazole-resistant), Table 7, read-out: MIC
[16] = C. difficile 27081 (FR, fidaxomicin-resistant), Table 7, read-out: MIC
[17] = C. difficile 27173 (MR, metronidazole-resistant), Table 7, read-out: MIC
[18] = C. difficile NR49292, Table 7, read-out: MIC
[19] = C. difficile NR49294, Table 7, read-out: MIC
[20] = C. difficile NR49302, Table 7, read-out: MIC
[21] = C. difficile NR49305, Table 7, read-out: MIC
[22] = C. difficile NR49310, Table 7, read-out: MIC
[23] = C. difficile NR49318, Table 7, read-out: MIC
[24] = C. difficile, Table 8, read-out: MIC
[25] = MIC MRSA NRS70/MIC C. difficile ATCC43255, Table 7
[26] = MIC MRSA/MIC C. difficile, Table 3
[27] = MRSA NRS70, Table 7, read-out: MIC
[28] = NRS70 strain, Table 3 (SAR^2 and SAR^3), read-out: MIC MRSA

MIC (Fusobacterium nucleatum): 8 µg/mL (≈ 23.9 µM)
MIC (Eubacterium sp.): 8 µg/mL (≈ 23.9 µM)
MIC (Veillonella sp. HM-49): 16 µg/mL (≈ 47.9 µM)
MIC (Bifidobacterium longum): > 16 µg/mL
MIC (C. difficile; [1]): 0.125 µg/mL (≈ 0.374 µM)
MIC (C. difficile; [2]): 0.125 µg/mL (≈ 0.374 µM)
MIC (C. difficile; [3]): 0.125 µg/mL (≈ 0.374 µM)
MIC (C. difficile; [4]): 0.25 µg/mL (≈ 0.748 µM)
MIC (C. difficile; [5]): 0.25 µg/mL (≈ 0.748 µM)
MIC (C. difficile; [6]): 0.25 µg/mL (≈ 0.748 µM)
MIC (C. difficile; [7]): 0.125 µg/mL (≈ 0.374 µM)
MIC (C. difficile; [8]): 0.25 µg/mL (≈ 0.748 µM)
MIC (C. difficile; [9]): 0.125 µg/mL (≈ 0.374 µM)
MIC (C. difficile; [10]): 0.25 µg/mL (≈ 0.748 µM)
MIC (C. difficile; [11]): 0.5 µg/mL (≈ 1.5 µM)
MIC (C. difficile; [12]): 0.25 µg/mL (≈ 0.748 µM)
MIC (C. difficile; [13]): 0.25 µg/mL (≈ 0.748 µM)
MIC (C. difficile; [14]): 0.5 µg/mL (≈ 1.5 µM)
MIC (C. difficile; [15]): 0.5 µg/mL (≈ 1.5 µM)
MIC (C. difficile; [16]): 0.5 µg/mL (≈ 1.5 µM)
MIC (C. difficile; [17]): 0.5 µg/mL (≈ 1.5 µM)
MIC (C. difficile; [18]): 0.25 µg/mL (≈ 0.748 µM)
MIC (C. difficile; [19]): 0.25 µg/mL (≈ 0.748 µM)
MIC (C. difficile; [20]): 0.25 µg/mL (≈ 0.748 µM)
MIC (C. difficile; [21]): 0.25 µg/mL (≈ 0.748 µM)
MIC (C. difficile; [22]): 0.125 µg/mL (≈ 0.374 µM)
MIC (C. difficile; [23]): 0.25 µg/mL (≈ 0.748 µM)
MIC (C. difficile; [24]): 0.125 µg/mL (≈ 0.374 µM)
MIC (Bacteroides fragilis): 4 µg/mL (≈ 12 µM)
MIC (Lactobacillus gasseri): > 16 µg/mL
MIC (MRSA (NRS70, NRS119); [27]): 128 µg/mL (≈ 383 µM)
MIC (MRSA (NRS70, NRS119); MRSA strain NRS70, read-out: MIC against MRSA): 128 µg/mL (≈ 383 µM)
MIC (MRSA (NRS70, NRS119); [28]): 128 µg/mL (≈ 383 µM)
MIC (E. faecium NCTC7171): ≥ 128 µg/mL
MIC (Lactobacillus reuteri): 4 µg/mL (≈ 12 µM)
MIC (S. aureus ATCC29213): ≥ 128 µg/mL
MIC (Corynebacterium spp.): 16 µg/mL (≈ 47.9 µM)
SMILES: O=C(Nc1ncco1)c1cc(-c2ccc(Cl)c(Cl)c2)ccn1 [Compound 87, 4-(3,4-Dichlorophenyl)-N-(oxazol-2-yl)picolinamide]
Selectivity (C. difficile; [25]): 1024
Selectivity (C. difficile; [26]): 1024
Selectivity (C. difficile; Table 8): 1024
IC50 (HeLa cells): 95.2 ± 1 µg/mL (≈ 285 µM)

MIC (Fusobacterium nucleatum): 8 µg/mL (≈ 23.9 µM)
MIC (Eubacterium sp.): > 16 µg/mL
MIC (Veillonella sp. HM-49): 4 µg/mL (≈ 12 µM)
MIC (Bifidobacterium longum): > 16 µg/mL
MIC (C. difficile; ATCC43255, ATCC 43255, ribotype 087, Table 2 (SAR^1), read-out: MIC C. difficile): 0.25 µg/mL (≈ 0.748 µM)
MIC (C. difficile; [1]): 0.25 µg/mL (≈ 0.748 µM)
MIC (C. difficile; [2]): 0.25 µg/mL (≈ 0.748 µM)
MIC (C. difficile; [3]): 0.25 µg/mL (≈ 0.748 µM)
MIC (C. difficile; [4]): 0.0625 µg/mL (≈ 0.187 µM)
MIC (C. difficile; [5]): 0.25 µg/mL (≈ 0.748 µM)
MIC (C. difficile; [6]): 0.5 µg/mL (≈ 1.5 µM)
MIC (C. difficile; [7]): 0.0625 µg/mL (≈ 0.187 µM)
MIC (C. difficile; [8]): 0.125 µg/mL (≈ 0.374 µM)
MIC (C. difficile; [9]): 0.125 µg/mL (≈ 0.374 µM)
MIC (C. difficile; [10]): ≤ 0.25 µg/mL
MIC (C. difficile; [11]): 0.25 µg/mL (≈ 0.748 µM)
MIC (C. difficile; [12]): 0.125 µg/mL (≈ 0.374 µM)
MIC (C. difficile; [13]): 0.125 µg/mL (≈ 0.374 µM)
MIC (C. difficile; [14]): 0.125 µg/mL (≈ 0.374 µM)
MIC (C. difficile; [15]): 0.25 µg/mL (≈ 0.748 µM)
MIC (C. difficile; [16]): 0.125 µg/mL (≈ 0.374 µM)
MIC (C. difficile; [17]): 0.125 µg/mL (≈ 0.374 µM)
MIC (C. difficile; [18]): 0.125 µg/mL (≈ 0.374 µM)
MIC (C. difficile; [19]): 0.0625 µg/mL (≈ 0.187 µM)
MIC (C. difficile; [20]): 0.0625 µg/mL (≈ 0.187 µM)
MIC (C. difficile; [21]): 0.125 µg/mL (≈ 0.374 µM)
MIC (C. difficile; [22]): 0.0625 µg/mL (≈ 0.187 µM)
MIC (C. difficile; [23]): 0.125 µg/mL (≈ 0.374 µM)
MIC (C. difficile; [24]): 0.25 µg/mL (≈ 0.748 µM)
MIC (Bacteroides fragilis): 1 µg/mL (≈ 2.99 µM)
MIC (Lactobacillus gasseri): > 16 µg/mL
MIC (MRSA (NRS70, NRS119); [27]): 0.25 µg/mL (≈ 0.748 µM)
MIC (MRSA (NRS70, NRS119); NRS70 strain, Table 2 (SAR^1), read-out: MIC MRSA): 0.25 µg/mL (≈ 0.748 µM)
MIC (MRSA (NRS70, NRS119); [28]): 0.25 µg/mL (≈ 0.748 µM)
MIC (E. faecium NCTC7171): 0.06 µg/mL (≈ 0.18 µM)
MIC (Lactobacillus reuteri): 8 µg/mL (≈ 23.9 µM)
MIC (S. aureus ATCC29213): 0.06 µg/mL (≈ 0.18 µM)
MIC (Corynebacterium spp.): 0.5 µg/mL (≈ 1.5 µM)
SMILES: O=C(Nc1ncco1)c1ccnc(-c2ccc(Cl)c(Cl)c2)c1 [Compound 4, 2-(3,4-Dichlorophenyl)-N-(oxazol-2-yl)isonicotinamide]
Selectivity (C. difficile; [25]): 1
Selectivity (C. difficile; [26]): 1
Selectivity (C. difficile; Table 8): 1
IC50 (HeLa cells): 79.9 ± 1 µg/mL (≈ 239 µM)
